Here are results for 29 molecules from US9925189B2, “Heterocyclic receptor agonists for the treatment of diabetes and metabolic disorders” (CymaBay Therapeutics, Inc., priority 2006, dated 2018).

The target in the first assay is T1, IC-GPCR2 (Homo sapiens, UniProt Q8TDV5, S309L).
T1 construct: expressed in transfected cells
T1 sequence (Q8TDV5 1-335 S309L): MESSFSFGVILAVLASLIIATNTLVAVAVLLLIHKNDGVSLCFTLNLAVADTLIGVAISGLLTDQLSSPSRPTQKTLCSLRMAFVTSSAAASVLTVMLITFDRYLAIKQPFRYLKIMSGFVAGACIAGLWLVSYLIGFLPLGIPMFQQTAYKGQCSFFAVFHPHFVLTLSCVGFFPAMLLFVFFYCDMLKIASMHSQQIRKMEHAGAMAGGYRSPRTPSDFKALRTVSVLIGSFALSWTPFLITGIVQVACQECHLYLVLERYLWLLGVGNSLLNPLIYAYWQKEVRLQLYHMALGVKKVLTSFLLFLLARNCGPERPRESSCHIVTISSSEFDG
The assay is described as follows: Stimulation of cAMP in CHO cells stably expressing IC-GPCR2 (HTRF cAMP assay). The class given is cell-based. Also on record: key to Activity at 10 uM: *: no activity observed when tested at 10 micromolar but no higher concentrations were tested. The settings on record: 0.5 h, 30 minutes, IC-GPCR2 stably expressing CHO cells, read-out: Activity at 10 uM (% change in FRET signal from DMSO control). The procedure, abridged:
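CHO cells stably expressing IC-GPCR2, plated at 17500 cells/well, treated next day for 30 min in Ham's F12 with compounds at 6–8 concentrations from 0.00003 to 10 μM; parental CHO cells also screened. Intracellular cAMP read by HTRF competitive immunoassay (665/620 nm ratio). Activity given as % FRET change from DMSO control.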
(In general: Time-resolved FRET reads energy transfer from a long-lived donor to a nearby acceptor.)
`CCc1cnc(N2CCC(c3nc(COc4ccc(-n5cnnn5)cc4C)cs3)CC2)nc1` [Example 164, 5-Ethyl-2-{4-[4-(2-methyl-4-tetrazol-1-yl-phenoxymethyl)-thiazol-2-yl]-piperidin-1-yl}-pyrimidine]: the activation at 10 µM worked out at 68%.
Regarding `Clc1cnc(N2CCC(c3nc(COc4ccc(-n5cnnn5)cc4Cl)cs3)CC2)nc1` [Example 165, 5-Chloro-2-{4-[4-(2-chloro-4-tetrazol-1-yl-phenoxymethyl)-thiazol-2-yl]-piperidin-1-yl}-1-pyrimidine], the activation at 10 µM came to 71%.
For `FC(F)(F)c1cnc(N2CCC(c3nc(COc4ccc(-n5cnnn5)cc4Cl)cs3)CC2)nc1` [Example 166, 2-{4-[4-(2-Chloro-4-tetrazol-1-yl-phenoxymethyl)-thiazol-2-yl]-piperidin-1-yl}-5-trifluoromethyl-pyrimidine], the activation at 10 µM was 74%.
In the case of `CCc1cnc(N2CCC(c3nc(COc4ccc(-n5cnnn5)cc4)co3)CC2)nc1` [Example 169, 5-Ethyl-2-{4-[4-(4-tetrazol-1-yl-phenoxymethyl)-oxazol-2-yl]-piperidin-1-yl}-pyrimidine], the activation at 10 µM worked out at 85%.
In the case of `CCc1cnc(N2CCC(c3nc(COc4ccc(-n5cnnn5)cc4F)co3)CC2)nc1` [Example 170, 5-Ethyl-2-{4-[4-(2-fluoro-4-tetrazol-1-yl-phenoxymethyl)-oxazol-2-yl]-piperidin-1-yl}-pyrimidine], the activation at 10 µM stood at 75%.
For `Fc1cc(-n2cnnn2)ccc1OCc1csc(C2CCN(c3ncc(C(F)(F)F)cn3)CC2)n1` [Example 171, 2-{4-[4-(2-Fluoro-4-tetrazol-1-yl-phenoxymethyl)-thiazol-2-yl]-piperidin-1-yl}-5-trifluoromethyl-pyrimidine], the activation at 10 µM amounted to 76%.
Regarding `COC(=O)c1cc(C)nc(N2CCC(c3nc(COc4ccc(-n5cnnn5)cc4)cs3)CC2)n1` [Example 173, 6-Methyl-2-{4-[4-(4-tetrazol-1-yl-phenoxymethyl)-thiazol-2-yl]-piperidin-1-yl}-pyrimidine-4-carboxylic acid methyl ester], the activation at 10 µM was 75%.
Still for that read-out and setting: next, `Cc1cc(C(=O)O)nc(N2CCC(c3nc(COc4ccc(-n5cnnn5)cc4)cs3)CC2)n1` [Example 176, 6-Methyl-2-{4-[4-(4-tetrazol-1-yl-phenoxymethyl)-thiazol-2-yl]-piperidin-1-yl}-pyrimidine-4-carboxylic acid]: 43%; `Fc1ccnc(N2CCC(c3nc(COc4ccc(-n5cnnn5)cc4)cs3)CC2)n1` [Example 178, 4-Fluoro-2-{4-[4-(4-tetrazol-1-yl-phenoxymethyl)-thiazol-2-yl]-piperidin-1-yl}-pyrimidine]: 39%; `CCOC(=O)c1cnc(N2CCC(c3nc(COc4ccc(-n5cnnn5)cc4)cs3)CC2)s1` [Example 180, 2-{4-[4-(4-Tetrazol-1-yl-phenoxymethyl)-thiazol-2-yl]-piperidin-1-yl}-thiazole-5-carboxylic acid ethyl ester]: 59%.
The same measure, in the same setting: in the case of `CCc1cnc(N2CCC(c3nc(COc4ccc(-n5cnnn5)nc4)cs3)CC2)nc1` [Example 182, 5-Ethyl-2-{4-[4-(6-tetrazol-1-yl-pyridin-3-yloxymethyl)-thiazol-2-yl]-piperidin-1-yl}-pyrimidine] it was 78%; in that of `Cc1cnc(N2CCC(c3nc(COc4ccc(-n5cnnn5)nc4)cs3)CC2)nc1` [Example 183, 5-Methyl-2-{4-[4-(6-tetrazol-1-yl-pyridin-3-yloxymethyl)-thiazol-2-yl]-piperidin-1-yl}-pyrimidine], 78%; in that of `Clc1cnc(N2CCC(c3nc(COc4ccc(-n5cnnn5)nc4)cs3)CC2)nc1` [Example 184, 5-Chloro-2-{4-[4-(6-tetrazol-1-yl-pyridin-3-yloxymethyl)-thiazol-2-yl]-piperidin-1-yl}-pyrimidine], 69%.
The same measure, in the same setting: in the case of `FC(F)(F)c1cnc(N2CCC(c3nc(COc4ccc(-n5cnnn5)nc4)cs3)CC2)nc1` [Example 185, 2-{4-[4-(6-Tetrazol-1-yl-pyridin-3-yloxymethyl)-thiazol-2-yl]-piperidin-1-yl}-5-trifluoromethyl-pyrimidine] it was 83%; in that of `Clc1ccc(N2CCC(c3nc(COc4ccc(-n5cnnn5)cc4)cs3)CC2)nn1` [Example 186, 3-Chloro-6-{4-[4-(4-tetrazol-1-yl-phenoxymethyl)-thiazol-2-yl]-piperidin-1-yl}-pyridazine], 80%; in that of `c1cc(-n2cnnn2)ccc1OCc1csc(C2CCN(c3cnc(-n4cnnn4)cn3)CC2)n1` [Example 187, 2-Tetrazol-1-yl-5-{4-[4-(4-tetrazol-1-yl-phenoxymethyl)-thiazol-2-yl]-piperidin-1-yl}-pyrazine], 75%.
`CCc1cnc(N2CCC(c3nc(CNc4ccc(F)nc4)cs3)CC2)nc1` [Example 188, {2-[1-(5-Ethyl-pyrimidin-2-yl)-piperidin-4-yl]-thiazol-4-ylmethyl}-(6-fluoro-pyridin-3-yl)-amine]: the activation at 10 µM was 69%.
Still for that read-out and setting: in the case of `CCc1cnc(N2CCC(c3nc(COc4c(F)cc(S(C)(=O)=O)cc4F)cs3)CC2)nc1` [Example 189, 2-{4-[4-(2,6-Difluoro-4-methanesulfonyl-phenoxymethyl)-thiazol-2-yl]-piperidin-1-yl}-5-ethyl-pyrimidine] it was 76%; in that of `CCCCc1cnc(N2CCC(c3nc(COc4ccc(-n5cnnn5)cc4)cs3)CC2)nc1` [Example 190, 5-Butyl-2-{4-[4-(4-tetrazol-1-yl-phenoxymethyl)-thiazol-2-yl]-piperidin-1-yl}-pyrimidine], 77%; in that of `CCc1cnc(N2CCC(c3nc(COc4ccc(N5CCOCC5)cc4)cs3)CC2)nc1` [Example 191, 4-(4-{2-[1-(5-Ethyl-pyrimidin-2-yl)-piperidin-4-yl]-thiazol-4-ylmethoxy}-phenyl)-morpholine], 74%.
Same read-out and setting: in the case of `O=[N+]([O-])c1cnc(N2CCC(c3nc(COc4ccc(-n5cnnn5)cc4)cs3)CC2)nc1` [Example 192, 5-Nitro-2-{4-[4-(4-tetrazol-1-yl-phenoxymethyl)-thiazol-2-yl]-piperidin-1-yl}-pyrimidine] it was 74%.
For the molecule `FC(F)(F)c1cnc(N2CCC(c3nc(COc4ccc(-n5cnnn5)cc4)cs3)CC2)c(Cl)c1` [Example 193, 3′-Chloro-4-[4-(4-tetrazol-1-yl-phenoxymethyl)-thiazol-2-yl]-5′-trifluoromethyl-3,4,5,6-tetrahydro-2H-[1,2′]bipyridinyl], the activation at 10 µM was determined as 35%.
The same measure, in the same setting: in the case of `Fc1cc(-n2cnnn2)ccc1OCc1csc(C2CCN(c3ncc(C(F)(F)F)cc3Cl)CC2)n1` [Example 194, 3′-Chloro-4-[4-(2-fluoro-4-tetrazol-1-yl-phenoxymethyl)-thiazol-2-yl]-5′-trifluoromethyl-3,4,5,6-tetrahydro-2H-[1,2′]bipyridinyl] it was 29%.
For the molecule `Fc1cc(-n2cnnn2)ccc1OCc1csc(C2CCN(c3ncc(Cl)cn3)CC2)n1` [Example 195, 5-Chloro-2-{4-[4-(2-fluoro-4-tetrazol-1-yl-phenoxymethyl)-thiazol-2-yl]-piperidin-1-yl}-pyrimidine], the activation at 10 µM turned out to be 68%.
Same read-out and setting: in the case of `Clc1cnc(N2CCC(c3nc(COc4ccc(-n5cnnn5)cc4)cs3)CC2)c(Cl)c1` [Example 196, 3′,5′-Dichloro-4-[4-(4-tetrazol-1-yl-phenoxymethyl)-thiazol-2-yl]-3,4,5,6-tetrahydro-2H-[1,2′]bipyridinyl] it was 19%.
The same measure, in the same setting: next, `COC(=O)c1cc(Cl)cnc1N1CCC(c2nc(COc3ccc(-n4cnnn4)cc3)cs2)CC1` [Example 198, 5′-Chloro-4-[4-(4-tetrazol-1-yl-phenoxymethyl)-thiazol-2-yl]-3,4,5,6-tetrahydro-2H-[1,2′]bipyridinyl-3′-carboxylic acid methyl ester]: 15%; `CCc1cnc(N2CCC(c3nc(COCc4ccc(S(C)(=O)=O)cc4)cs3)CC2)nc1` [Example 203, 5-Ethyl-2-{4-[4-(4-methanesulfonyl-benzyloxymethyl)-thiazol-2-yl]-piperidin-1-yl}-pyrimidine]: 76%.
The same measure, in the same setting: in the case of `FC(F)(F)c1cnc(N2CCC(c3nc(COc4ccc(-n5cnnn5)cc4)cs3)CC2)nc1` [Example 205] it was 75%.

The same assay, now with this note: symbol entry.
For `CCOC(=O)c1cnc(N2CCC(c3nc(COc4ccc(-n5cnnn5)cc4)cs3)CC2)c(Cl)c1` [Example 197, 3′-Chloro-4-[4-(4-tetrazol-1-yl-phenoxymethyl)-thiazol-2-yl]-3,4,5,6-tetrahydro-2H-[1,2′]bipyridinyl-5′-carboxylic acid ethyl ester], the “Activity at 10 uM” value was “*”.
